From the NIST ThermoML archive (doi:10.1021/je030167i)

Columns and labels:
[1] = xn = mol fraction of the nth substance listed; settings: 101.3 kPa, Liquid
[2] = 101.3 kPa, Liquid

CC1CCCO1 (configuration not stated) [2-methyltetrahydrofuran] + CCCCCl
[1]
Settings	kinematic viscosity, 298.15 K [m2/s]	kinematic viscosity, 313.15 K [m2/s]	mass density, 298.15 K [kg/m3]	mass density, 313.15 K [kg/m3]
x2 = 0	5.59e-07	4.92e-07	849.28	834.01
x2 = 0.0494	5.56e-07	4.88e-07	850.97	835.48
x2 = 0.1008	5.52e-07	4.85e-07	852.97	837.19
x2 = 0.203	5.43e-07	4.78e-07	856.41	840.52
x2 = 0.3004	5.35e-07	4.71e-07	859.76	843.74
x2 = 0.3963	5.27e-07	4.64e-07	862.73	846.73
x2 = 0.4969	5.18e-07	4.56e-07	865.86	849.69
x2 = 0.5976	5.09e-07	4.49e-07	869.09	852.75
x2 = 0.6993	5.01e-07	4.41e-07	872.11	855.69
x2 = 0.7993	4.93e-07	4.34e-07	874.9	858.36
x2 = 0.8988	4.85e-07	4.27e-07	878.01	861.05
x2 = 0.9483	4.82e-07	4.24e-07	879.23	862.56

CC1CCCO1 (configuration not stated) [2-methyltetrahydrofuran] + CCCCO
[1]
Settings	kinematic viscosity, 298.15 K [m2/s]	kinematic viscosity, 313.15 K [m2/s]	mass density, 298.15 K [kg/m3]	mass density, 313.15 K [kg/m3]
x2 = 0	5.59e-07	4.92e-07	849.28	834.01
x2 = 0.0488	5.91e-07	5.11e-07	847.62	832.35
x2 = 0.1039	6.22e-07	5.35e-07	845.56	830.5
x2 = 0.205	6.93e-07	5.88e-07	841.78	827.07
x2 = 0.3006	7.7e-07	6.52e-07	838.03	823.64
x2 = 0.4051	8.81e-07	7.34e-07	833.86	820
x2 = 0.5099	1.05e-06	8.41e-07	829.37	815.98
x2 = 0.6036	1.21e-06	9.69e-07	825.28	812.07
x2 = 0.7034	1.47e-06	1.16e-06	820.68	807.96
x2 = 0.8042	1.84e-06	1.39e-06	815.8	803.45
x2 = 0.906	2.4e-06	1.76e-06	810.56	798.76
x2 = 0.9582	2.8e-06	1.99e-06	807.81	796.23

CCCCO [butan-1-ol]
[2]
Settings	kinematic viscosity [m2/s]	mass density [kg/m3]
298.15 K	3.19e-06	805.56
313.15 K	2.22e-06	794.19

CCCCO [butan-1-ol] + CC1CCCO1
[1], x1 = 1
Settings	kinematic viscosity [m2/s]	mass density [kg/m3]
298.15 K	3.19e-06	805.56
313.15 K	2.22e-06	794.19

CCC(C)O (configuration not stated) [butan-2-ol]
[2]
Settings	kinematic viscosity [m2/s]	mass density [kg/m3]
298.15 K	3.73e-06	802.25
313.15 K	2.24e-06	789.44

CCC(C)O (configuration not stated) [butan-2-ol] + CC1CCCO1
[1], x1 = 1
Settings	kinematic viscosity [m2/s]	mass density [kg/m3]
298.15 K	3.73e-06	802.25
313.15 K	2.24e-06	789.44
